Results from ChEMBL document CHEMBL3507680, “University of Dundee, Gates Library screen for HepG2 cell viability”.

Assay: Human HepG2 cell viability assay in 384 well format
Assay type: toxicity, cell-based
Parameters: dose 125 nL, time 70.5 hour; concentration not given beside the values
Settings: HepG2 cells, read-out: Inhibition

| SMILES | cytotoxicity at 70.5 h [%] |
| --- | --- |
| CCOCCC1(CNC(=O)c2ccc(C)nc2)CCCC1 | 0.601 |
| CCc1nc(C(=O)N(CC)CC(=O)Nc2cc(Cl)ccc2C)c[nH]1 | -4.72 |
| Cn1cc(CC2CC(=O)N(Cc3ccc(Cl)cc3)C2=O)cn1 (configuration not stated) | 24.4 |
| CCOCCC1(CNC(=O)c2ccncc2Cl)CCC1 | -2.65 |
| COc1cccc(NC(=O)CCCc2nc(C(C)C)no2)c1 | 5.69 |
| Cc1nn(C)c(Cl)c1C1CCCN1CC(=O)N1CCCCC1 (configuration not stated) | 26.9 |
| CCCn1cc(NC2CCSCC2)cn1 | 2.92 |
| COc1ccc(CNCC2CN(C3CC3)CCO2)cc1C (configuration not stated) | -4.72 |
| Cc1c(C(=O)NC2=NCCS2)cnn1-c1ccc(Cl)cc1 | -3.08 |
| O=C(Nc1nncs1)N1CCC(CCc2ccc(O)cc2)CC1 | -14.7 |
| CN(CC(O)COc1ccc(C(F)(F)F)cc1)C(=O)Nc1nncs1 (configuration not stated) | 19.7 |
| O=C(Nc1nncs1)N1CCC(c2ccc(O)cc2)CC1 | -4.31 |
| CC(=O)Nc1nc(CS(=O)(=O)Cc2ccccc2)cs1 | 20.1 |
| NC(=O)C1CCN(CCc2ccc(NCc3cccnc3)cc2)CC1 | 4.26 |
| CN1CCN(C(=O)C2CCCN2c2ncnc3ccsc23)CC1 (configuration not stated) | -11.8 |
| CCC(C#N)NC(=O)COC1CCCCC1 (configuration not stated) | -13.3 |
| CN1CC(NC(=O)CCCc2cc(Cl)sc2Cl)CCC1=O (configuration not stated) | -6.53 |
| O=C(CCNS(=O)(=O)c1cccnc1)N1CCOC(c2ccccc2)C1 (configuration not stated) | -13.3 |
| CCN(C(c1cccnc1)c1ccc2c(c1)CCC2)S(C)(=O)=O (configuration not stated) | 3.11 |
| CC/C=C(/C)C(=O)N1CSCC1C(=O)N(C)CCc1ccncc1 (configuration not stated) | -4.98 |
| CC(NCCN1CCN(C(=O)C2CCCC2)CC1)c1nccs1 (configuration not stated) | 7.3 |
| Cc1cccc(-c2noc(CN3CCc4c(ncn4C4CC4)C3)n2)c1 | -13.2 |
| NC(c1ccc(F)cc1)c1cccs1 (configuration not stated) | 6.42 |
| CCCN(C)C(=O)c1cc(Br)cc(S(=O)(=O)N2CCOCC2)c1F | 6.3 |
| Cc1cc(Cl)ccc1NCc1cnn(C2CCS(=O)(=O)C2)c1 (configuration not stated) | 5.78 |
| COc1ccc(CNC(=O)NCc2ccc(C)cc2)cn1 | -7.46 |

| SMILES | cytotoxicity at 70.5 h [%] |
| --- | --- |
| COc1ccc(CNC(=O)NCc2ccc(C(N)=O)cc2)cn1 | -2.22 |
| Cc1ncc(CN(C)C(=O)Nc2ccc(CN3CCOC3=O)cc2)s1 | -7.05 |
| NC(=O)C1CCN(C(=O)CCCc2ccc(Cl)c(Cl)c2)CC1 | -6.88 |
| Cc1ncc(CN(C)C(=O)Nc2cccc(C(=O)N3CCOCC3)c2)s1 | -2.6 |
| Cn1c(=O)oc2ccc(NC(=O)N3CCc4ccccc4C3)cc21 | 2.84 |
| O=C(NS(=O)(=O)c1ccc(C2CCCCC2)cc1)C1COCCO1 (configuration not stated) | -4.85 |
| CCn1cc(NC(=O)NC(CO)Cc2c[nH]c3ccccc23)cn1 (configuration not stated) | -4.69 |
| CC(C)C1CCCN1C(=O)c1ccc(-n2ncc(C#N)c2N)cc1 (configuration not stated) | -5.76 |
| COc1ccc(CNC(=O)NCc2nc(C)c(C)s2)cn1 | -5.21 |
| CCOc1cc(CNC(=O)NCc2nc(C)c(C)s2)ccn1 | -5.57 |
| Cn1ncnc1CCNC(=O)c1cc(Cl)c(Cl)n1C | -2.76 |
| O=S1(=O)CCC(n2cc(CNCC3(c4ccccc4)CC3)cn2)C1 (configuration not stated) | 30.7 |
| Cc1cc(Cl)cc(C)c1CNC1CCN(CC(=O)N(C)C)CC1 | -2.67 |
| CCN(Cc1ccoc1)C(=O)NC1CCN(CC2CCCC2)CC1 | -6.01 |
| CCN(Cc1ccoc1)C(=O)NC1CCN(CC=C(C)C)CC1 | 6.72 |
| Cn1c(SCC(O)COCc2ccc(Cl)cc2)nnc1C1CC1 (configuration not stated) | -3.52 |
| CCn1cc(S(=O)(=O)NC(CO)Cc2c[nH]c3ccccc23)cn1 (configuration not stated) | -7.79 |
| Cn1c(SCC(O)COCc2ccccc2Cl)nnc1C1CC1 (configuration not stated) | -8.57 |
| Cc1noc(CCCC(=O)N2CCCCC2c2nccs2)n1 (configuration not stated) | 32 |
| O=S(=O)(NC(CO)Cc1c[nH]c2ccccc12)c1cncc(F)c1 (configuration not stated) | -4.62 |
| CC(C)(C)c1ncc(CNc2ccn(CCc3ccncc3)n2)s1 | -10.2 |
| Cc1cc(N2CCOCC2)ccc1NC(C)c1nc(C(C)C)no1 (configuration not stated) | -0.714 |
| Cc1noc(C(C)Nc2ccc(N3CCOCC3)cc2C)n1 (configuration not stated) | -4.53 |
| c1ccc2nc(N3CCCC3c3nnc4n3CCCCC4)cnc2c1 (configuration not stated) | 0.321 |
| Cc1cc(NC(=O)C(C)Nc2cccc(COCc3ccco3)c2)no1 (configuration not stated) | -13.8 |
| Cc1cc(N2CCCC2c2nnc3n2CCCCC3)nc(C)n1 (configuration not stated) | -3.38 |

| SMILES | cytotoxicity at 70.5 h [%] |
| --- | --- |
| Cc1ccc(NS(=O)(=O)c2cnn(-c3ccccc3)c2)c(C(=O)O)c1 | -5.8 |
| CC(C)c1noc(CN(CCC2CCCCC2)CC(N)=O)n1 | -3.41 |
| COCCN(C(=O)c1ccn(-c2ccc(OC)cc2)n1)C(C)C(N)=O (configuration not stated) | 20.6 |
| CCSc1ccc(C(=O)N2CCCCC2C(=O)N2CCCC2)cn1 (configuration not stated) | -0.733 |
| Clc1cncc(N2CCCC2c2nnc3n2CCCCC3)n1 (configuration not stated) | -17.1 |
| CC(CC(=O)NS(C)(=O)=O)C1CCCCC1 (configuration not stated) | -13.9 |
| CCSc1ccc(C(=O)N2CCCCC2C(=O)NC(C)(C)C)cn1 (configuration not stated) | -7.45 |
| CCc1cc(NC(=O)C2CCCN(C(=O)NCC(C)C)C2)[nH]n1 (configuration not stated) | -17.1 |
| CCc1cc(NC(=O)C2CCCN(C(=O)c3ccncc3)C2)[nH]n1 (configuration not stated) | -10.6 |
| COc1ccc(-n2ccc(C(=O)N(C)C(C)C3(C)CC3)n2)cc1 (configuration not stated) | 21.1 |
| COCC(O)CNC(=O)Nc1c(F)cc(F)cc1-c1ccccc1 (configuration not stated) | -11.2 |
| O=C(O)CCN(Cc1ccc(F)c(F)c1)C(=O)C1CC1 | -11.3 |
| Cc1cc(F)ccc1-n1cc(O)c(C(=O)NCC2(O)CCC2)n1 | 28.4 |
| COCCCN(C)C(=O)c1cccc(Nc2cnccn2)c1 | 24.1 |
| Cc1noc(CCCC(=O)N(CCC(=O)O)Cc2ccc(F)c(F)c2)n1 | -3.72 |
| Cc1cc(N2CCCC2Cn2nc(C)cc2C)n2ncnc2n1 (configuration not stated) | 29 |
| COc1ccc(NC(=O)CSc2nc(C)c(C)c(C)c2C#N)cn1 | -2.39 |
| COc1ccc(C(C)NC(=O)NCCNc2ccccn2)c(OC)c1 (configuration not stated) | 27.8 |
| COc1cc(C)nc(N2CCN(C(C)c3nc(C4CC4)no3)CC2)n1 (configuration not stated) | -10.4 |
| Cc1cc(N2CCCCC2Cn2nc(C)cc2C)n2ncnc2n1 (configuration not stated) | -4.18 |
| COc1ccc(C(C)NC(=O)NCCc2ccc(C)nc2)c(OC)c1 (configuration not stated) | 24 |
| NC(=O)CCC1CCCN(c2ccc3c(Cl)ccnc3c2F)C1 (configuration not stated) | -6.43 |
| COc1ccc(S(=O)(=O)N2CCC(OCc3ccccn3)C2)cc1Br (configuration not stated) | -9.24 |
| CC(Cn1cccn1)NC(=O)N(C)Cc1cnn(C)c1 (configuration not stated) | -7.21 |
| CCCNC(c1cccnc1)c1ccc(F)cc1F (configuration not stated) | 42.9 |
| CCNC(c1ccc(F)cc1)c1cccnc1 (configuration not stated) | -19.7 |

| SMILES | cytotoxicity at 70.5 h [%] |
| --- | --- |
| CN(Cc1cnn(C)c1)C(CO)c1cccc(Br)c1 (configuration not stated) | -16.5 |
| CN(Cc1cnn(C)c1)C(=O)c1ccc(Cl)c(N2CCNC2=O)c1 | -22.2 |
| Cc1oc(-c2ccsc2)nc1CN1CCCC(c2ccnn2C)C1 (configuration not stated) | -23.6 |
| Cc1cc(CS(=O)(=O)C(C)C(=O)N(C)c2ccccc2)on1 (configuration not stated) | -28.7 |
| CCCNC(=O)c1cccc(CNCc2csc(CC)n2)c1 | -106 |
| CCCNC(=O)c1cccc(CNCc2csc(C(C)C)n2)c1 | -78.5 |
| CCS(=O)(=O)NC(CCSC)C(=O)Nc1cc(F)ccc1C (configuration not stated) | -36.1 |
| Cc1ccc(C(NCC(=O)N2CCNC(=O)C2)C(F)(F)F)cc1 (configuration not stated) | -113 |
| CC(NC(=O)Nc1ccc(-n2cncn2)cc1)C(=O)NC(C)(C)C (configuration not stated) | -29.6 |
| CCC(C)NC(=O)c1cccc(CNCc2csc(C(C)C)n2)c1 (configuration not stated) | -89.9 |
| O=C(CN(CC(O)c1ccc(F)cc1)C1CC1)NCc1cccs1 (configuration not stated) | -114 |
| CNS(=O)(=O)c1ccc(CNC(=O)N(CC(C)C)C(C)C)cc1 | -96.5 |
| CCN(C(=O)C(C)S(=O)(=O)Cc1nc(C)no1)c1ccccc1 (configuration not stated) | -96.7 |
| COc1ccc(NC(C)c2nnnn2-c2ccccc2)cn1 (configuration not stated) | -96.1 |
| COc1ccc(NC(C)c2nnnn2-c2ccccc2)cc1F (configuration not stated) | -95.4 |
| CCNc1nc(C(=O)N(C)Cc2nc(CC)no2)cs1 | -109 |
| NC(=O)CCSc1ccccc1NCc1ccc(Cl)s1 | -95 |
| CC(NC(=O)CCC(C)(C)C)C(=O)Nc1ccc(-n2cncn2)cc1 (configuration not stated) | -24.9 |
| CC(C)(C)c1nc(CNc2ccccc2SCCC(N)=O)cs1 | -107 |
| CCC(C)(C)CC(=O)NC(C)C(=O)Nc1ccc(-n2cncn2)cc1 (configuration not stated) | -81.3 |
| CC(C)CCS(=O)(=O)N1CCCC(c2nncn2C(C)C)C1 (configuration not stated) | -33.9 |
| c1ccc(CNc2ccccc2N2CCCC2)nc1 | -18.2 |
| CC(C)NC(=O)CNC(C)c1c(F)cccc1Cl (configuration not stated) | -79.9 |
| NC(c1ccc(Cl)cc1)c1cccs1 (configuration not stated) | 9.24 |
